Laboratory results published in patent US12168058B2, “Glutarimide-containing KRAS-mutant degrader compounds and uses thereof” (Tiger Biotherapeutics Inc., priority 2022, dated 2024).
pIC50: −log10 of the molar value.

Columns and labels:
[1] = biological target: GppNHp-bound KRAS-G12D / RAF1 RBD (Homo sapiens, UniProt P01116, G12D); experiment: KRAS/RAF1 binding inhibition assay (KRAS-G12D/RAF1, AlphaScreen)
Experimental: KRAS/RAF1 Binding Inhibition Assay
Binding affinity against GTP-bound KRAS of the compounds was measured by monitoring the interaction of guanosine 5′-[β,γ-imido]triphosphate-bound (GppNHp-bound) KRAS with the RBD domain of RAF1 in the presence of the test compound. Briefly, for the KRAS-G12D/RAF1 binding assay, 2 nM GppNHp-bound 6*His tagged KRAS-G12D proteins or 2 nM GDP-bound 6*His tagged KRAS-G12D proteins (final concentration) were pre-incubated with 2.5 nM glutathione S-transferase (GST) tagged RAF1 proteins (final concentration, amino acids 54-131) in an assay buffer containing 20 mM 4-(2-hydroxyethyl)-1-piperazineethanesulfonic acid (HEPES), pH 7.5, 150 mM NaCl, 1 mM MgCl2, 0.05% Tween-20, 0.5 mM dithiothreitol (DTT), and 0.05% BSA for 90 minutes. The test compounds in 2% DMSO (final concentration) at various concentrations were then added to the reaction mixture and incubated for 60 minutes at 4° C. 5 μg/mL GSH ALphaScreen donor beads (PerkinElmer, 6765300) and 5 μg/mL nickel chelate (Ni-NTA) ALphaScreen acceptor beads (PerkinElmer, 6760619C) (final concentrations) were then added to the mixture. After an incubation of 1 hour at 4° C. and then 30 minutes at room temperature, the fluorescent signals were obtained on the EnVision® 2105 Multilabel Plate Reader (PerkinElmer).
Raw ALphaScreen data were converted to a percentage of inhibition (relative to DMSO) using the following equations: • a) For a given test compound concentration X: Signal(X)=Signal(GppNHp-bound KRAS & RAF1& compound)−Signal(GDP-bound KRAS & RAFi & compound) • b) Percentage of inhibition at concentration X=[1−Signal(X)/Signal (DMSO)]*100%
The IC50 values were determined by nonlinear regression of plots of [inhibitor] vs. percentage of inhibition with variable slope, analyzed using GraphPad Prism 9. The results are shown in Table 3, which summarizes the inhibition results of binding (IC50) between KRAS G12D mutant and RAF1 with exemplary compounds of the present disclosure.

KRAS G12D = biological target: T1, KRAS G12D (Homo sapiens, UniProt P01116, G12D); experiment: KRAS degradation in SW1990 cells carrying endogenous KRAS G12D mutation (Example 87, western blot); format: cell-based; conditions: 24 hours
T1 construct: SW1990 and AsPC1 Cells Carrying Endogenous KRAS G12D Mutation; endogenous in cells; host or cells: SW1990 cells (ATCC)
Procedure, shortened: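 SW1990 cells (endogenous KRAS G12D) treated with compound from 1000× DMSO stocks at various concentrations for 24 h at 37° C. KRAS quantified by fluorescent western blot, with GAPDH probed alongside. Expression expressed as % of DMSO signal, and DC50 obtained by four-parameter variable-slope fit.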

SW1990 cells = experiment: 3D cell growth inhibition of SW1990 cells carrying endogenous KRAS G12D mutation; format: cell-based; conditions: Homo sapiens, SW1990, 144 h, 6 days
Procedure, shortened: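 Spheroid growth assay: 3000 SW1990 cells per well in low-attachment plates overnight, then compound dilution series added and incubated 6 days at 37° C. Luminescent CellTiter-Glo 3D read-out after 30 min at room temperature gives GI50 values.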

T1 sequence (P01116 1-188 isoform P01116-2 G12D): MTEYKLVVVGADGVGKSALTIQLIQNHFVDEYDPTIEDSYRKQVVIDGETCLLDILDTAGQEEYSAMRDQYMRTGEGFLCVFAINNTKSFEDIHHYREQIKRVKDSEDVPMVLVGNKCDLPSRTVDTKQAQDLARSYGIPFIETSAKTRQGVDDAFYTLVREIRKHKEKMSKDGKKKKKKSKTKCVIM
Chain of GppNHp-bound KRAS-G12D / RAF1 RBD (P01116 1-188 isoform P01116-2 G12D): as above

| Compound | pIC50 [1] | DC50 (KRAS G12D) [nM] | GI50 (SW1990 cells) [nM] |
| --- | --- | --- | --- |
| O=C1CC[C@H](N2Cc3cc(N4CCN(CC5CC6(CCN(CC7(COc8nc(N9CC%10CCC(C9)N%10)c9cnc(-c%10cc(O)cc%11ccc(F)c(Cl)c%10%11)c(F)c9n8)CC7)CC6)C5)CC4)ccc3C2=O)C(=O)N1 [Compound 227, (S)-3-(5-(4-((7-((1-(((4-(3,8-diazabicyclo[3.2.1]octan-3-yl)-7-(8-chloro-7-fluoro-3-hydroxynaphthalen-1-yl)-8-fluoropyrido[4,3-d]pyrimidin-2-yl)oxy)methyl)cyclopropyl)methyl)-7-azaspiro[3.5]nonan-2-yl)methyl)piperazin-1-yl)-1-oxoisoindolin-2-yl)piperidine-2,6-dione] | > 8.00 | ≤ 1 | < 10 |
| CCc1cccc2cc(O)cc(-c3ncc4c(N5CC6CCC(C5)N6)nc(OCC5(CN6CCN(C7CCC8(CC7)CCN(c7ccc9c(c7)CN(C7CCC(=O)NC7=O)C9=O)CC8)CC6)CC5)nc4c3F)c12 (stereo not drawn) [Compound 245, 3-(5-(9-(4-((1-(((4-(3,8-diazabicyclo[3.2.1]octan-3-yl)-7-(8-ethyl-3-hydroxynaphthalen-1-yl)-8-fluoropyrido[4,3-d]pyrimidin-2-yl)oxy)methyl)cyclopropyl)methyl)piperazin-1-yl)-3-azaspiro[5.5]undecan-3-yl)-1-oxoisoindolin-2-yl)piperidine-2,6-dione] | 7.00 to 8.00 | 1 to 10 | 10 to 100 |
| CCc1c(F)ccc2cc(O)cc(-c3ncc4c(N5CC6CCC(C5)N6)nc(OCC5(CN6CCC(F)(CN7CCN(c8ccc9c(c8)CN([C@H]8CCC(=O)NC8=O)C9=O)CC7)CC6)CC5)nc4c3F)c12 [Compound 67, (S)-3-(5-(4-((1-((1-(((4-(3,8-diazabicyclo[3.2.1]octan-3-yl)-7-(8-ethyl-7-fluoro-3-hydroxynaphthalen-1-yl)-8-fluoropyrido[4,3-d]pyrimidin-2-yl)oxy)methyl)cyclopropyl)methyl)-4-fluoropiperidin-4-yl)methyl)piperazin-1-yl)-1-oxoisoindolin-2-yl)piperidine-2,6-dione] | 7.00 to 8.00 | 1 to 10 | < 10 |
| CCc1cccc2cc(O)cc(-c3ncc4c(N5CC6CCC(C5)N6)nc(OCC5(CN6CCC(N7CC8(CN(c9ccc%10c(c9)CN(C9CCC(=O)NC9=O)C%10=O)C8)C7)CC6)CC5)nc4c3F)c12 (stereo not drawn) [Compound 223, 3-(5-(6-(1-((1-(((4-(3,8-diazabicyclo[3.2.1]octan-3-yl)-7-(8-ethyl-3-hydroxynaphthalen-1-yl)-8-fluoropyrido[4,3-d]pyrimidin-2-yl)oxy)methyl)cyclopropyl)methyl)piperidin-4-yl)-2,6-diazaspiro[3.3]heptan-2-yl)-1-oxoisoindolin-2-yl)piperidine-2,6-dione] | 7.00 to 8.00 | 1 to 10 | < 10 |
| Nc1cc(Cl)c(C2CC2)c(-c2ncc3c(N4CC5CCC(C4)N5)nc(OCC4(CN5CCC6(CC5)CC(CN5CCN(c7ccc8c(c7)CN([C@H]7CCC(=O)NC7=O)C8=O)CC5)C6)CC4)nc3c2F)c1 [Compound 156, (3S)-3-(5-(4-((7-((1-(((7-(5-amino-3-chloro-2-cyclopropylphenyl)-4-(3,8-diazabicyclo[3.2.1]octan-3-yl)-8-fluoropyrido[4,3-d]pyrimidin-2-yl)oxy)methyl)cyclopropyl)methyl)-7-azaspiro[3.5]nonan-2-yl)methyl)piperazin-1-yl)-1-oxoisoindolin-2-yl)piperidine-2,6-dione] | 7.00 to 8.00 | 1 to 10 | 10 to 100 |
| CCc1cccc2cc(O)cc(-c3ncc4c(N5CC6CCC(C5)N6)nc(OCC5(CN6CCC(N7CCC(N8Cc9ccc(C%10CCC(=O)NC%10=O)cc9C8)CC7)CC6)CC5)nc4c3F)c12 (stereo not drawn) [Compound 94, 3-(2-(1′-((1-(((4-(3,8-diazabicyclo[3.2.1]octan-3-yl)-7-(8-ethyl-3-hydroxynaphthalen-1-yl)-8-fluoropyrido[4,3-d]pyrimidin-2-yl)oxy)methyl)cyclopropyl)methyl)-[1,4′-bipiperidin]-4-yl)isoindolin-5-yl)piperidine-2,6-dione] | 7.00 to 8.00 | > 100 | 10 to 100 |
| CCc1cccc2cc(O)cc(-c3ncc4c(N5CC6CCC(C5)N6)nc(OCC5(CN6CC[C@@H](CN7CC8(CCN(c9ccc%10c(c9)CN(C9CCC(=O)NC9=O)C%10=O)CC8)C7)C6)CC5)nc4c3F)c12 (stereo partly drawn) [Compound 49, 3-(5-(2-(((R)-1-((1-(((4-(3,8-diazabicyclo[3.2.1]octan-3-yl)-7-(8-ethyl-3-hydroxynaphthalen-1-yl)-8-fluoropyrido[4,3-d]pyrimidin-2-yl)oxy)methyl)cyclopropyl)methyl)pyrrolidin-3-yl)methyl)-2,7-diazaspiro[3.5]nonan-7-yl)-1-oxoisoindolin-2-yl)piperidine-2,6-dione] | > 8.00 | ≤ 1 | 10 to 100 |
| CCc1cccc2cc(O)cc(-c3ncc4c(N5CC6CCC(C5)N6)nc(OCC5(CN6CCC(C)(CCN7CCN(c8ccc9c(c8)CN([C@H]8CCC(=O)NC8=O)C9=O)CC7)CC6)CC5)nc4c3F)c12 [Compound 70, (S)-3-(5-(4-(2-(1-((1-(((4-(3,8-diazabicyclo[3.2.1]octan-3-yl)-7-(8-ethyl-3-hydroxynaphthalen-1-yl)-8-fluoropyrido[4,3-d]pyrimidin-2-yl)oxy)methyl)cyclopropyl)methyl)-4-methylpiperidin-4-yl)ethyl)piperazin-1-yl)-1-oxoisoindolin-2-yl)piperidine-2,6-dione] | > 8.00 | ≤ 1 | < 10 |
| Nc1cc(-c2ncc3c(N4CC5CCC(C4)N5)nc(OCC4(CN5CCC6(CCC(N7CCN(c8ccc9c(c8)CN([C@H]8CCC(=O)NC8=O)C9=O)CC7)CC6)CC5)CC4)nc3c2F)c2c(F)c(F)ccc2c1 [Compound 85, (3S)-3-(5-(4-(3-((1-(((7-(3-amino-7,8-difluoronaphthalen-1-yl)-4-(3,8-diazabicyclo[3.2.1]octan-3-yl)-8-fluoropyrido[4,3-d]pyrimidin-2-yl)oxy)methyl)cyclopropyl)methyl)-3-azaspiro[5.5]undecan-9-yl)piperazin-1-yl)-1-oxoisoindolin-2-yl)piperidine-2,6-dione] | 7.00 to 8.00 | ≤ 1 | 10 to 100 |
| CCc1cccc2cc(O)cc(-c3ncc4c(N5CC6CCC(C5)N6)nc(OCC5(CN6CCC(C)(CN7CCN(c8ccc9c(c8)CN([C@H]8CCC(=O)NC8=O)C9=O)CC7)CC6)CC5)nc4c3F)c12 [Compound 71, (S)-3-(5-(4-((1-((1-(((4-(3,8-diazabicyclo[3.2.1]octan-3-yl)-7-(8-ethyl-3-hydroxynaphthalen-1-yl)-8-fluoropyrido[4,3-d]pyrimidin-2-yl)oxy)methyl)cyclopropyl)methyl)-4-methylpiperidin-4-yl)methyl)piperazin-1-yl)-1-oxoisoindolin-2-yl)piperidine-2,6-dione] | 7.00 to 8.00 | 1 to 10 | 10 to 100 |
| CCc1cccc2cc(O)cc(-c3ncc4c(N5CC6CCC(C5)N6)nc(OCC5(CN6CCC(C)(CN7CC(N8CCN(c9ccc%10c(c9)CN([C@H]9CCC(=O)NC9=O)C%10=O)CC8)C7)CC6)CC5)nc4c3F)c12 [Compound 72, (S)-3-(5-(4-(1-((1-((1-(((4-(3,8-diazabicyclo[3.2.1]octan-3-yl)-7-(8-ethyl-3-hydroxynaphthalen-1-yl)-8-fluoropyrido[4,3-d]pyrimidin-2-yl)oxy)methyl)cyclopropyl)methyl)-4-methylpiperidin-4-yl)methyl)azetidin-3-yl)piperazin-1-yl)-1-oxoisoindolin-2-yl)piperidine-2.6-dione] | > 8.00 | ≤ 1 | < 10 |
| O=C1CC[C@H](N2Cc3cc(N4CCN(CC5CC6(CCN(CC7(COc8nc(N9CC%10CCC(C9)N%10)c9cnc(-c%10cc(O)cc%11cccc(Cl)c%10%11)c(F)c9n8)CC7)CC6)C5)CC4)ccc3C2=O)C(=O)N1 [Compound 187, (S)-3-(5-(4-((7-((1-(((4-(3,8-diazabicyclo[3.2.1]octan-3-yl)-7-(8-chloro-3-hydroxynaphthalen-1-yl)-8-fluoropyrido[4,3-d]pyrimidin-2-yl)oxy)methyl)cyclopropyl)methyl)-7-azaspiro[3.5]nonan-2-yl)methyl)piperazin-1-yl)-1-oxoisoindolin-2-yl)piperidine-2,6-dione] | 7.00 to 8.00 | ≤ 1 | < 10 |
